Numbers after ± are expanded uncertainties.
Experiments:
[1] = molar heat capacity at constant pressure; wn = mass fraction of the nth substance listed; conditions: 101 kPa, Liquid, Small sample (50 mg) DSC
[2] = molar heat capacity at constant pressure; conditions: 101.33 kPa, Liquid, Small sample (50 mg) DSC

NCC(=O)[O-].[Na+] [sodium glycinate] + O
molar heat capacity at constant pressure [J/K/mol], [1]
Conditions | 298.15 K | 303.15 K | 308.15 K | 313.15 K | 318.15 K | 323.15 K
w1 = 0.01 | 75.2 ± 1.5 | 75.21 ± 1.5 | 75.25 ± 1.5 | 75.32 ± 1.5 | 75.4 ± 1.5 | 75.41 ± 1.5
w1 = 0.05 | 76.7 ± 1.5 | 76.72 ± 1.5 | 76.77 ± 1.5 | 76.85 ± 1.5 | 76.92 ± 1.5 | 77.05 ± 1.5
w1 = 0.1 | 77.39 ± 1.5 | 77.41 ± 1.5 | 77.47 ± 1.5 | 77.53 ± 1.5 | 77.59 ± 1.5 | 77.67 ± 1.5
w1 = 0.15 | 78.81 ± 1.6 | 78.85 ± 1.6 | 78.91 ± 1.6 | 78.99 ± 1.6 | 79.07 ± 1.6 | 79.2 ± 1.6
w1 = 0.2 | 78.23 ± 1.6 | 78.79 ± 1.6 | 79.45 ± 1.6 | 80.12 ± 1.6 | 80.77 ± 1.6 | 81.48 ± 1.6
w1 = 0.3 | 80.84 ± 1.6 | 81.46 ± 1.6 | 82.1 ± 1.6 | 82.75 ± 1.6 | 83.44 ± 1.7 | 84.11 ± 1.7

O [water]
[2]
Conditions | molar heat capacity at constant pressure [J/K/mol]
303.15 K | 75.29 ± 1.5
308.15 K | 75.36 ± 1.5
313.15 K | 75.38 ± 1.5
318.15 K | 75.39 ± 1.5
323.15 K | 75.39 ± 1.5
328.15 K | 75.39 ± 1.5
333.15 K | 75.41 ± 1.5
338.15 K | 75.41 ± 1.5
343.15 K | 75.43 ± 1.5
348.15 K | 75.45 ± 1.5
353.15 K | 75.48 ± 1.5
